Measured values as given in patent US20220370604A1, “PEPTIDE VACCINE FOR VIRUS INFECTION” (Vacino Biotech Co., Ltd., priority 2021, published 2022).
Ends that are not written are not given here.

Tests used:
[1] = tested on: CD8^+ T cells in human PBMCs (HLA-A201^+); assay: MHC class I tetramer assay; type: cell-based; details: human PBMC (HLA-A201^+), 30 nM tetramer, 20 minutes; FIG. 3
Procedure: Human PBMCs were treated with MHC class I tetramers binding with Peptide 1 (SEQ ID NO: 1) or Peptide 12 (SEQ ID NO: 12) for 20 minutes, co-stained with anti-CD8 antibodies, and then analyzed with a flow cytometer. Results are presented as mean with error bars representing standard error (n=3). *p<0.05.
MHC class I tetramer assay. […] Then, 50 µL of the obtained folded monomer were mixed with the equivalent of 2.1 μL of a 0.2 mg/mL streptavidin-fluorophore and incubated in the dark at 4° C. for at least 1 hour to tetramerized the monomer. The tetramer was diluted to 30 nM in FACS buffer (PBS with 1% v/v BSA and 0.1% v/v NaN3) for staining of human T cells.
Next, around 1-2×10^5 human peripheral blood mononuclear cells (PBMCs, HLA-A201^+) ([…] Technologies Inc, Vancouver, British Columbia, Canada) in FACS buffer were seeded onto a 96-well microplate. The cells were centrifuged at 700×g for 3 minutes, and the supernatant was removed. The cells were resuspended with 40 μL of the diluted tetramer and incubated in the dark at room temperature (RT) for 20 minutes. The cells were washed once in cold FACS buffer and centrifuged at 700×g for 3 minutes. […] The cells were washed twice in cold FACS buffer, resuspended in FACS buffer, and analyzed in a flow cytometer (BD LSRFortessa™X20, Franklin Lakes, N.J., U.S.).

[2] = tested on: CD4^+ T cells in human PBMCs (HLA-A201^+); assay: Intracellular cytokine staining and multiparameter flow cytometry; type: cell-based; details: Day 12
Procedure: Human PBMCs were treated with Peptide 1 (SEQ ID NO: 1) at the concentrations of 0.4, 2, 10, 50, 250 nM for 12 days and then subject to intracellular cytokine staining and multiparameter flow cytometry.
Human PBMCs were treated with Peptide 12 (SEQ ID NO: 12) at the concentrations of 0.4, 2, 10, 50, 250 nM for 12 days and then subject to intracellular cytokine staining and multiparameter flow cytometry.
Intracellular cytokine staining and multiparameter flow cytometry. Around 1-2×10^5 human PBMCs (HLA-A201^+) ([…] Technologies Inc, Vancouver, British Columbia, Canada) were seeded onto 96-well microplate in X-VIVO 15 medium. […] The culture medium was refreshed every 5 days, and on the 12th day after treatment with the peptides, the cells were collected and stained with anti-CD4-PerCP-Cy5.5 conjugated, IFN-γ-FITC chrome conjugated, and IL4-PE chrome conjugated antibodies according to the manufacturer's instruction. After that, the cells were washed twice in cold FACS buffer, resuspended in FACS buffer, and analyzed in a flow cytometer ((BD LSRFortessa™X20, Franklin Lakes, N.J., U.S.).

[3] = tested on: Human SARS-CoV-2 Spike (trimer); assay: Immunization of mice, anti-spike IgG ELISA; type: in vivo; details: Day 41 vs Day -1, BALB/c mice
HLA-A201 = HLA-A201 (Homo sapiens, UniProt P04439, D140Y/D185E/D98H/E176V/E277Q/G131W/G231S/I119V/I121R/I166T/I218V/N151K/N90K/P208A/P217A/Q86G/Q94H/R138H/R169H); assay: MHC-peptide binding assay (MHC class I refolding assay, easYmer)
Procedure: Different concentrations of peptides were incubated with β2-microglobulin light chain subunit and biotin-labeled recombinant HLA-A201 to form peptide-HLA complexes. The peptide-HLA complexes were then captured by streptavidin-coated beads and detected by anti-human β2-microglobulin antibody on flow cytometry. Each data point represents the mean fluorescence intensity corresponding to the number of the formed peptide-HLA complex, and the error bars represent standard deviation (n=2).
Each bar represents the mean fluorescence intensity corresponding to the number of the formed peptide-HLA complex, and the error bars represent standard deviation (n=2).
MHC-peptide binding assay. […] MHC class I refolding assay (easYmer, immunAware Aps, Copenhagen, Denmark) was preformed according to manufacturer's instruction. […] The biotin-labeled peptide-HLA complex was then captured by streptavidin-coated beads and detected by PE-conjugated anti-human β2-microglobulin on flow cytometry. […] No peptide was used in the negative control.

[4] = Immunization of mice, total IgG ELISA; type: in vivo, BALB/c mice; details: for total IgG antibodies: BALB/c mice, ***p<0.001
Procedure: Immunization of mice. To determine the immunogenicity of the antigen peptides of the present invention, Peptide 1 (SEQ ID NO: 1) of the present invention were used as an example for mice model. Ten (10) female BALB/c mice (7-9 weeks old) supplied by Envigo (Indianapolis, Ind., USA) were intramuscularly injected with 3 shots of 45 μg Peptide 1 (SEQ ID NO: 1) at 2 weeks apart (on Days 0, 14, and 28). Serum was collected before the day of each immunization (on Days−1, 13, and 27). Terminal blood collection was performed on Day 41. Isolated serum was stored at −80° C. until serological analysis. Serum samples collected one day prior to the first injection (on Day−1, pre-dose group) and serum samples collected 2 weeks after the third injection (on Day 41, post-dose group) were used for anti-spike IgG ELISA assay.
Total IgG ELISA. IgG (Total) Mouse Uncoated ELISA kit (Cat. No. 88-50400, Thermo Fisher Scientific, MA, USA) was used for total IgG ELISA according to manufacturer's instruction. Briefly, Nunc™ MaxiSorp™ 9018 ELISA plate was coated with 100 μL/well of capture antibody in Coating Buffer and incubated overnight at 4° C. The plate was washed twice with 400 μL/well Wash Buffer. After the wells were blocked with 250 μL of Blocking Buffer and incubated at room temperature for 2 hours, the plate was washed twice. The standards were serially diluted with Assay Buffer A at 2-fold to make the standard curve. Then, 100 μL/well of Assay Buffer A were added to the blank wells, and 90 μL/well of Assay Buffer A were added to the sample wells. Serum samples were diluted at least 10,000-fold in Assay Buffer A, and then 10 μL/well of the prediluted serum samples were added to the appropriate wells. Fifty (50) μL/well of diluted Detection Antibody were added to all wells. Then, the plate was covered and incubated at room temperature for 2 hours, and washed four times after the incubation. […] After that, 100 μL of Stop Solution were added to each well, and the plate was read at OD 450 nm with a microplate reader. […]

Sequence | antigen specific cytotoxic T cells (CTLs) detected by MHC class I tetramer staining [1] | IL-4 secretion by T helper cells (CD4^+ cells) ([2]; 50 nM peptide) | IFN-γ secretion by T helper cells (CD4^+ cells) ([2]; 250 nM peptide) | anti-spike IgG antibodies ([3]; intramuscular, 45 μg, FIG. 5B, ***p<0.001) | anti-spike IgG antibodies ([3]; oral, 200 μg formulated with 1% (v/v) PLCL-PEG-PLCL, FIG. 7B, **p<0.01) | binding affinity for HLA-A201, times as high as that of CMVpp65495-503 (positive control) (HLA-A201; 8.9 nM peptide, FIG. 1, mean fluorescence intensity of peptide-HLA complex) [times] | binding affinity for HLA-A201 compared with CMVpp65495-503 (positive control) (HLA-A201; concentration of 3 nM and 8.9 nM, FIG. 1) | total IgG antibodies ([4]; intramuscular, 45 μg, Days 0, 14, 28, FIG. 5A) | total IgG, course over administrations ([4]; intramuscular, 45 μg, sera on Days -1, 13, 27, 41, FIG. 5A) | total IgG antibodies ([4]; oral, 200 μg formulated with 1% (v/v) PLCL-PEG-PLCL, Day 41 vs Day -1, FIG. 7A)
KLNSGDSKV [Peptide 1] | can be detected | higher level | higher level | induced anti-spike IgG antibodies | induced anti-spike IgG antibodies | 1.8 | higher binding affinity for HLA-A201 than CMVpp65495-503 | induced total IgG antibodies | reaches to the plateau after second administration | induced total IgG antibodies
KLNSGLSKV [Peptide 12] | can be detected | – | – | – | – | – | – | – | – | –
